Results published in PubChem BioAssay AID1963869 (Molecular Pharmacology Branch, DTP, NCI, 2024).

Test system: KRAS patient-derived spheroids with HUVEC/MSC, viability
Test: Anticancer human tumor 323965-272-R-J2-PDC patient-derived pancreatic carcinoma cell line growth inhibition [KRAS2]
Settings: for IC50: curve of first compound; for viability, T/C: stronger effect = lower value
In short: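 Combination screen of spheroid viability in tumor-cell co-cultures with endothelial (HUVEC) and mesenchymal stem cell stroma. Each agent was tested in half-log dilutions, topping at clinical Cmax or at 10 microM without a known Cmax.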

[1] = second compound 0.0316 µM, first compound 0.01 µM
[2] = second compound 0.0316 µM, first compound 0.0316 µM
[3] = second compound 0.0316 µM, first compound 0.1 µM
[4] = second compound 0.0316 µM, first compound 0.316 µM
[5] = second compound 0.0316 µM, first compound 1 µM
[6] = second compound 0.0316 µM, first compound 3.16 µM
[7] = second compound 0.1 µM, first compound 0.01 µM
[8] = second compound 0.1 µM, first compound 0.0316 µM
[9] = second compound 0.1 µM, first compound 0.1 µM
[10] = second compound 0.1 µM, first compound 0.316 µM
[11] = second compound 0.1 µM, first compound 1 µM
[12] = second compound 0.1 µM, first compound 3.16 µM
[13] = second compound 0.316 µM, first compound 0.01 µM
[14] = second compound 0.316 µM, first compound 0.0316 µM
[15] = second compound 0.316 µM, first compound 0.1 µM
[16] = second compound 0.316 µM, first compound 0.316 µM
[17] = second compound 0.316 µM, first compound 1 µM
[18] = second compound 0.316 µM, first compound 3.16 µM
[19] = second compound 1 µM, first compound 0.01 µM
[20] = second compound 1 µM, first compound 0.0316 µM
[21] = second compound 1 µM, first compound 0.1 µM
[22] = second compound 1 µM, first compound 0.316 µM
[23] = second compound 1 µM, first compound 1 µM
[24] = second compound 1 µM, first compound 3.16 µM
[25] = second compound 3.16 µM, first compound 0.01 µM
[26] = second compound 3.16 µM, first compound 0.0316 µM
[27] = second compound 3.16 µM, first compound 0.1 µM
[28] = second compound 3.16 µM, first compound 0.316 µM
[29] = second compound 3.16 µM, first compound 1 µM
[30] = second compound 3.16 µM, first compound 3.16 µM
[31] = second compound 0.0316 µM, first compound 10 µM
[32] = second compound 0.1 µM, first compound 10 µM
[33] = second compound 0.316 µM, first compound 10 µM
[34] = second compound 1 µM, first compound 10 µM
[35] = second compound 3.16 µM, first compound 10 µM
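Note: spheroids exposed to agents for 7 days.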
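Throughout, for viability, T/C: 100% = DMSO vehicle control viability.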

Structure (SMILES) | IC50 (second compound 0.0316 µM) [nM] | IC50 (second compound 0.1 µM) [nM] | IC50 (second compound 0.316 µM) [nM] | IC50 (second compound 1 µM) [nM] | IC50 (second compound 3.16 µM) [nM] | viability, T/C [2] [%] | viability, T/C [3] [%] | viability, T/C [4] [%] | viability, T/C [5] [%] | viability, T/C [6] [%] | viability, T/C [8] [%] | viability, T/C [9] [%] | viability, T/C [10] [%] | viability, T/C [11] [%] | viability, T/C [14] [%] | viability, T/C [15] [%] | viability, T/C [20] [%] | viability, T/C [21] [%] | viability, T/C [26] [%] | viability, T/C [27] [%] | further results
CC(=O)OC12COC1CC(O)C1(C)C(=O)C(O)C3=C(C)C(OC(=O)C(O)C(NC(=O)OC(C)(C)C)c4ccccc4)CC(O)(C(OC(=O)c4ccccc4)C21)C3(C)C (stereo not given) + C=CC(=O)N1CCN(c2nc(OCC3CCCN3C)nc3c2CCN(c2cccc4cccc(C)c24)C3)CC1CC#N | < 10 | < 10 | < 10 | < 10 | < 10 | 23.9 | 22.6 | 23.2 | 22.9 | 23.6 | 22.9 | 18.7 | 20.7 | 20.7 | 21.1 | 19.7 | 17.4 | 18.2 | 31.1 | 26.5 | viability, T/C [1]: 25.4%; viability, T/C [7]: 21.5%; viability, T/C [12]: 21.2%; viability, T/C [13]: 20.1%; viability, T/C [16]: 17.9%; viability, T/C [17]: 30.9%; viability, T/C [18]: 21.3%; viability, T/C [19]: 19.4%; viability, T/C [22]: 16%; viability, T/C [23]: 17.1%; viability, T/C [24]: 17.2%; viability, T/C [25]: 31.7%; viability, T/C [28]: 24.8%; viability, T/C [29]: 27.7%; viability, T/C [30]: 31.2%
CN(C)C/C=C/C(=O)Nc1cc2c(Nc3ccc(F)c(Cl)c3)ncnc2cc1O[C@H]1CCOC1 + C=CC(=O)N1CCN(c2nc(OCC3CCCN3C)nc3c2CCN(c2cccc4cccc(C)c24)C3)CC1CC#N | 13 | 1.77 | 2.3 | 2.3 | < 0.316 | 49.9 | 47.9 |  |  |  | 40.9 | 42.3 |  |  | 39.2 | 39.1 | 40.7 | 42.5 | 17 | 14.7 | viability, T/C (second compound 0.0316 µM, first compound 0.000316 µM): 75.1%; viability, T/C (second compound 0.0316 µM, first compound 0.001 µM): 66.2%; viability, T/C (second compound 0.0316 µM, first compound 0.00316 µM): 55.9%; viability, T/C [1]: 49.6%; viability, T/C (second compound 0.1 µM, first compound 0.000316 µM): 66%; viability, T/C (second compound 0.1 µM, first compound 0.001 µM): 52.5%; viability, T/C (second compound 0.1 µM, first compound 0.00316 µM): 48.4%; viability, T/C [7]: 42.4%; viability, T/C (second compound 0.316 µM, first compound 0.000316 µM): 56.2%; viability, T/C (second compound 0.316 µM, first compound 0.001 µM): 51.1%; viability, T/C (second compound 0.316 µM, first compound 0.00316 µM): 53.2%; viability, T/C [13]: 43.1%; viability, T/C (second compound 1 µM, first compound 0.000316 µM): 62.5%; viability, T/C (second compound 1 µM, first compound 0.001 µM): 52.4%; viability, T/C (second compound 1 µM, first compound 0.00316 µM): 52.6%; viability, T/C [19]: 41.9%; viability, T/C (second compound 3.16 µM, first compound 0.000316 µM): 36.8%; viability, T/C (second compound 3.16 µM, first compound 0.001 µM): 34.9%; viability, T/C (second compound 3.16 µM, first compound 0.00316 µM): 19.4%; viability, T/C [25]: 17.3%
COC(=O)c1ccc2c(C(=Nc3ccc(N(C)C(=O)CN4CCN(C)CC4)cc3)c3ccccc3)c(O)[nH]c2c1 + C=CC(=O)N1CCN(c2nc(OCC3CCCN3C)nc3c2CCN(c2cccc4cccc(C)c24)C3)CC1CC#N | 1640 | 993 | 388 | 873 | < 31.6 | 76.7 | 73.2 | 69.8 | 61.8 | 35.4 | 66.7 | 68.8 | 65.8 | 49.3 | 63.8 | 67.3 | 64.9 | 62.8 | 26.2 | 25.4 | viability, T/C [31]: 19.6%; viability, T/C [12]: 28.1%; viability, T/C [32]: 19.7%; viability, T/C [16]: 49.6%; viability, T/C [17]: 38.3%; viability, T/C [18]: 20.6%; viability, T/C [33]: 18.2%; viability, T/C [22]: 58.4%; viability, T/C [23]: 49.5%; viability, T/C [24]: 23.4%; viability, T/C [34]: 16.8%; viability, T/C [28]: 30%; viability, T/C [29]: 15.6%; viability, T/C [30]: 9.71%; viability, T/C [35]: 5.57%
O=C(c1cc(Cc2n[nH]c(=O)c3ccccc23)ccc1F)N1CCN(C(=O)C2CC2)CC1 + C=CC(=O)N1CCN(c2nc(OCC3CCCN3C)nc3c2CCN(c2cccc4cccc(C)c24)C3)CC1CC#N | 8150 | > 10000 | 4290 | 6240 | < 31.6 | 79.1 | 77.5 | 76.1 | 71.6 | 74.3 | 61.4 | 64.6 | 61.8 | 60.4 | 57.8 | 60.1 | 61.6 | 63.5 | 33.7 | 27.4 | viability, T/C [31]: 44.9%; viability, T/C [12]: 57.5%; viability, T/C [32]: 48.5%; viability, T/C [16]: 55.4%; viability, T/C [17]: 58%; viability, T/C [18]: 51.8%; viability, T/C [33]: 43.1%; viability, T/C [22]: 63.3%; viability, T/C [23]: 59.7%; viability, T/C [24]: 50.8%; viability, T/C [34]: 48.3%; viability, T/C [28]: 25.1%; viability, T/C [29]: 31.8%; viability, T/C [30]: 34.7%; viability, T/C [35]: 25.1%
